Results from PubChem BioAssay (NCI).
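Briefly, cells in 96-well plates were exposed to five compound concentrations for 48 h, and endpoints were estimated by linear interpolation. TGI is the concentration that stops growth completely.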

Tests used:
Assay in all cases: inhibition of tumour cell growth, NCI panel, 48 h
COLO 205 colon = test system: COLO 205 colon
K-562 leukemia = test system: K-562 leukemia
HT29 colon = test system: HT29 colon
M19-MEL melanoma = test system: M19-MEL melanoma
A498 renal = test system: A498 renal
M14 melanoma = test system: M14 melanoma
ACHN renal = test system: ACHN renal
786-0 renal = test system: 786-0 renal
SK-OV-3 ovarian = test system: SK-OV-3 ovarian
SN12C renal = test system: SN12C renal
HOP-62 NSCLC = test system: HOP-62 NSCLC
SK-MEL-2 melanoma = test system: SK-MEL-2 melanoma
A549 NSCLC = test system: A549 NSCLC
SK-MEL-5 melanoma = test system: SK-MEL-5 melanoma
IGROV1 ovarian = test system: IGROV1 ovarian
LXFL 529 NSCLC = test system: LXFL 529 NSCLC
MOLT-4 leukemia = test system: MOLT-4 leukemia
RPMI-8226 leukemia = test system: RPMI-8226 leukemia
NCI-H460 lung = test system: NCI-H460 lung
SNB-19 CNS = test system: SNB-19 CNS
MALME-3M melanoma = test system: MALME-3M melanoma
HL-60(TB) leukemia = test system: HL-60(TB) leukemia
CCRF-CEM leukemia = test system: CCRF-CEM leukemia
U251 CNS = test system: U251 CNS
HOP-92 NSCLC = test system: HOP-92 NSCLC
SF-295 CNS = test system: SF-295 CNS
SNB-75 CNS = test system: SNB-75 CNS
KM12 colon = test system: KM12 colon
SK-MEL-28 melanoma = test system: SK-MEL-28 melanoma
UACC-257 melanoma = test system: UACC-257 melanoma
NCI-H522 lung = test system: NCI-H522 lung
SF-268 CNS = test system: SF-268 CNS
SR leukemia = test system: SR leukemia
HCC-2998 colon = test system: HCC-2998 colon
KM20L2 colon = test system: KM20L2 colon
DMS 273 small cell lung = test system: DMS 273 small cell lung
OVCAR-4 ovarian = test system: OVCAR-4 ovarian
HOP-18 NSCLC = test system: HOP-18 NSCLC
HCT-15 colon = test system: HCT-15 colon
TK-10 renal = test system: TK-10 renal
SNB-78 CNS = test system: SNB-78 CNS
OVCAR-8 ovarian = test system: OVCAR-8 ovarian
SW-620 colon = test system: SW-620 colon
RXF 393 renal = test system: RXF 393 renal
OVCAR-5 ovarian = test system: OVCAR-5 ovarian
OVCAR-3 ovarian = test system: OVCAR-3 ovarian
UO-31 renal = test system: UO-31 renal
NCI-H226 lung = test system: NCI-H226 lung
SF-539 CNS = test system: SF-539 CNS
UACC-62 melanoma = test system: UACC-62 melanoma
DMS 114 small cell lung = test system: DMS 114 small cell lung
NCI-H23 lung = test system: NCI-H23 lung
HCT-116 colon = test system: HCT-116 colon
EKVX NSCLC = test system: EKVX NSCLC
CAKI-1 renal = test system: CAKI-1 renal
DLD-1 colon = test system: DLD-1 colon
XF 498 CNS = test system: XF 498 CNS
RXF-631 renal = test system: RXF-631 renal
LOX IMVI melanoma = test system: LOX IMVI melanoma

Measured: TGI

CCc1cccc(NC(=O)c2cc(/C=C/c3ccccc3)[nH]c(=S)n2)c1
not listed: CAKI-1 renal | DLD-1 colon | XF 498 CNS | RXF-631 renal | LOX IMVI melanoma
> 100 µM: all other assays above

N#CCC(=O)Nc1ccccc1O
not listed: DMS 114 small cell lung | LOX IMVI melanoma
> 100 µM: all other assays above

CN1C(=O)N(c2nc3ccccc3[nH]2)C(C)(C)C1=O
not listed: NCI-H460 lung | HOP-92 NSCLC | HCC-2998 colon | TK-10 renal | OVCAR-5 ovarian | CAKI-1 renal | RXF-631 renal
> 100 µM: all other assays above
